Assay [1] relates to glaucomatous rabbit eye model. Nature of the assay: Antiglaucoma activity in vivo, IOP lowering, topical. As to conditions: 1 % concentration, at 1 h post-administration.
The target in assay [2] is CYP2D6 (Homo sapiens, UniProt P10635). Nature of the assay: CYP inhibition in HLM, CYP2D6. It is filed as in vitro ADME.

The results in this text go back to publication PMC10848004 (Saudi Pharmaceutical Journal : SPJ, 2024).

Chain of CYP2D6 (P10635 whole entry): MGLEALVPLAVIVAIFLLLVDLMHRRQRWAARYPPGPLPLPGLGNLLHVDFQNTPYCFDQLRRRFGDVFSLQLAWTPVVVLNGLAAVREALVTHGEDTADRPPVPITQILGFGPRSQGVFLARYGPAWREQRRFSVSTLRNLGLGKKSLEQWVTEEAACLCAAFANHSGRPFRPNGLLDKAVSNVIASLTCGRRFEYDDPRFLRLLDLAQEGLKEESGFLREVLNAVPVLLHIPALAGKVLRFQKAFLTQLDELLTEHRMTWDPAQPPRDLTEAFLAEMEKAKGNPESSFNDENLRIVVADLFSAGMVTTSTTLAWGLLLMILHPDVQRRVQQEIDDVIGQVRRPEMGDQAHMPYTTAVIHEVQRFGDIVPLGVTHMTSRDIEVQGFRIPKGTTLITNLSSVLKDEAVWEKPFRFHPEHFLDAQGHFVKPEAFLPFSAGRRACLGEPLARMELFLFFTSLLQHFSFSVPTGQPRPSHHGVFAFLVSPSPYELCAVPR

`CCN[C@H]1CN(CCCOC)S(=O)(=O)c2sc(S(N)(=O)=O)cc21` [BRZ, brinzolamide]: the “maximal intraocular pressure lowering effect” value in assay [1] is recorded as “around 5 mm Hg”. In turn, `COc1ccc2c(c1)[C@]13CCCC[C@@H]1[C@H](C2)N(C)CC3` [Dextromethorphan] returned an IC50 in assay [2] of 1.34 µM.

Usually IC50 stands for the concentration that gives 50% inhibition.
